The target in assay [1] is T1, 3-oxo-5-alpha-steroid 4-dehydrogenase 1 (Homo sapiens, UniProt P18405).
T1 sequence (P18405 whole entry): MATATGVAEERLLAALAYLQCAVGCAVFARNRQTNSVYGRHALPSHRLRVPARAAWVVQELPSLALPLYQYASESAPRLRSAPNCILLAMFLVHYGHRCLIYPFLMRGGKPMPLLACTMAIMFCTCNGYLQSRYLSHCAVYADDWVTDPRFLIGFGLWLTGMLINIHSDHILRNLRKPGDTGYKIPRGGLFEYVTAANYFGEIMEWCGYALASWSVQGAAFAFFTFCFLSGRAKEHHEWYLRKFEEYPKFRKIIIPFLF
The experiment in a line: Apparent inhibition constant towards human Steroid 5-alpha-reductase type I. The following applies: read-out: Ki app.

The target in assay [2] is T2, 3-oxo-5-alpha-steroid 4-dehydrogenase 2 (Homo sapiens, UniProt P31213).
T2 sequence (P31213 whole entry): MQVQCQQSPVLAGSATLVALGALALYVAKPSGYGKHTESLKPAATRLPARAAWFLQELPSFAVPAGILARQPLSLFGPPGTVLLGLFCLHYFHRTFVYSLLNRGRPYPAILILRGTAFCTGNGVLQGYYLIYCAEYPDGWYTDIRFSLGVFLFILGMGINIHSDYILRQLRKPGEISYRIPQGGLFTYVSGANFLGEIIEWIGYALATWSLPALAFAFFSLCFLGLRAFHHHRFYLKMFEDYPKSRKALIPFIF
The experiment in a line: Apparent inhibition constant towards human Steroid 5-alpha-reductase type 2. Conditions: read-out: Ki app.

Assay [3] has as its target T3, 3-oxo-5-alpha-steroid 4-dehydrogenase 2 (Homo sapiens) (UniProt P31213).
T3 sequence (whole entry): T2 sequence (P31213 whole entry)
The experiment in a line: Percent inhibition towards human Steroid 5-alpha-reductase type 2 at 2.5 uM concentration.

For assay [4], the target named is T1, 3-oxo-5-alpha-steroid 4-dehydrogenase 1. The experiment in a line: Apparent inhibition constant towards human Steroid 5-alpha-reductase type I; […].

The source of these data is ChEMBL document CHEMBL1127757, “A non-steroidal diene acid inhibitor of human type 2 stereoid 5-reductase” (Bioorg Med Chem Lett, 1994).

Turning to `COc1cccc2c1CC=C1C=C(P(O)O)CCC12C` (centres undefined), the figures for the Ki in assay [1] and in assay [2] were 1900 nM and 1600 nM, respectively.
The inhibition is the percentage by which the read-out fell short of the control. In assay [3], `COc1ccc2c(c1)CC=C1C=C(C(=O)O)CCC12C` (centres undefined) came in with an inhibition of 30%. The Ki app entry in assay [4] is “No inhibition”. Further, the Ki in assay [2] was more than 2500 nM.
On to `CC(C)N(C(=O)[C@H]1CCC2C3CC=C4C=C(P(O)O)CC[C@]4(C)C3CC[C@@]21C)C(C)C` (some centres undefined), for which the Ki in assay [1] is 4900 nM; in assay [2] it was 0.8 nM.
Taken in the same sequence, the figures for `CN1C(=O)CCC2(C)c3ccc(Cl)cc3CCC12` (centres undefined) were 20 nM and more than 5000 nM.
Consider `CC12CCC(P(O)O)=CC1=CCc1cc(Cl)ccc12` (centres undefined), for which the Ki was found to be 1900 nM in assay [1] and 1600 nM in assay [2].
Taken in the same sequence, the figures for `COc1cccc2c1CC=C1C=C(C(=O)O)CCC12C` (centres undefined) were 1900 nM and 1600 nM.
As for `CC12CCC(C(=O)O)=CC1=CCc1cc(Cl)ccc12` (centres undefined), the Ki in assay [1] was determined as 1200 nM; in assay [2], 260 nM.
On the same counts, the results for `CC(C)(C)NC(=O)[C@H]1CC[C@H]2[C@@H]3CC=C4C=C(C(=O)O)CC[C@]4(C)[C@H]3CC[C@]12C` [EPRISTERIDE] are 410 nM and 0.2 nM.
`CC(C)(C)NC(=O)[C@H]1CC[C@H]2[C@@H]3CC[C@H]4NC(=O)C=C[C@]4(C)[C@H]3CC[C@]12C` [FINASTERIDE]: the results for the Ki in assay [1] and in assay [2] were 100 nM and 2 nM, respectively.
